From PubChem BioAssay AID1918995 (Molecular Pharmacology Branch, DTP, NCI, 2023)

System: 324938-238-R-J1-PDC complex spheroid growth, % test/control
Experiment: Anticancer human tumor 324938-238-R-J1-PDC patient-derived bladder carcinoma cell line growth inhibition [AhR]
Details: for IC50: curve of first compound; for viability, T/C: stronger effect = lower value
Description: Multicellular complex tumor spheroid response to aryl hydrocarbon receptor antagonists in combination with a variety of drugs and investigational agents in selected tumor cell lines
The current study was undertaken to assess response to aryl hydrocarbon receptor antagonists in combination with standard-of-care drugs and investigational agents in solid tumor complex spheroid models. Complex spheroids include a stromal component modeled by human endothelial cells (HUVEC) and fibroblasts modeled by human mesenchymal stem cells (MSCs). The concentration ranges selected for each drug and investigational agent were based upon clinically achievable concentrations if the clinical Cmax of the agent was known.
Compounds. The drugs and investigational agents: BAY 2416964 (NSC825713), GNF351 (NSC835774), CH-223191 (NSC835775), CPI-455 (NSC825282), aza-TdCyd (NSC777586), decitabine (NSC127716), belinostat (NSC758774), entinostat (NSC756642), pevonedistat (NSC761192), tazemetostat (NSC777109), talazoparib (NSC765396), olaparib (NSC753686), selinexor (NSC780203), nedisertib (M3814, NSC802822), bortezomib (NSC756655), venetoclax (NSC766270), doxorubicin (NSC123127), elimusertib (BAY189344, NSC800525), ceralasertib (AZD6738, NSC777638), TAK-243 (NSC785004), alisertib (NSC759677), etoposide (NSC141540), topotecan (NSC609699), eribulin (NSC707389), gemcitabine (NSC613327), carboplatin (NSC241240), cisplatin (NSC119875), and SN-38 (NSC673596) were obtained from the National Cancer Institute (NCI) Developmental Therapeutics Program Chemical Repository (32). The FDA-approved anticancer drug set is available from the Developmental Therapeutics Program at https://dtp.cancer.gov/organization/dscb/obtaining/available plates.htm. […] The stock solutions were prepared in dimethyl sulfoxide (DMSO, Sigma-Aldrich, St. Louis, MO, cat. D2650), except for the platinum compounds which were prepared in saline (Quality Biological, Gaithersburg, MD, cat. 114-055-101), at 800-fold the tested concentration and stored at -70 degrees C prior to their use. All drugs and investigational agents were tested over a range starting from a high concentration at or near the clinical Cmax and decreasing in half-log increments. If the clinical Cmax for an agent had not been determined, the highest concentration tested was 10 microM (Table 1).
Cell Culture. All cells were maintained in an incubator at 37 degrees C and 5% CO2 with 95% humidity. The PDC lines were cultured according to standard operating procedures established by the NCI PDMR (https://pdmr.cancer.gov). Briefly, all PDCs were thawed and cultured in Matrigel-coated flasks prepared with a working solution of 1X Ham's F-12 nutrient mix, without supplementation (Invitrogen, Waltham, MA, cat. 11765054), 100 U/mL penicillin-streptomycin (Invitrogen, cat. 15140122), and 2.5% Matrigel (Corning Inc., Corning, NY, cat. 354248) for the first three passages. All PDCs were cultured in complete DMEM/F-12 media containing advanced DMEM/F-12 (Invitrogen, cat. 12634028), 4.9% defined fetal bovine serum, heat inactivated (HyClone Laboratories Inc., Logan, UT, cat. SH30070.03HI), 389 ng/mL hydrocortisone (Sigma-Aldrich, cat. H4001), 9.7 ng/mL human EGF recombinant protein (Invitrogen, cat. PHG0313), 23.4 microg/mL adenine (Sigma-Aldrich, cat. A2786), 97.3 U/mL penicillin-streptomycin (Invitrogen, cat. 15140122), 1.9 mM L-glutamine (Invitrogen, cat. 25030081), and 9.7 microM Y-27632 dihydrochloride (Tocris Bioscience, Bristol, United Kingdom, cat. 1254). The PDCs were cultured in complete DMEM/F12 media without 10 microM Y-27632 dihydrochloride for at least two passages prior to the screen. The established cell lines NCI-H1341 and […] were cultured in DMEM/F-12, HEPES (Invitrogen, cat. 11330032), 5% defined fetal bovine serum (HyClone Laboratories Inc., cat. SH30070.03), ITS premix universal culture supplement [insulin (5 microg/mL), transferrin (5 microg/mL), and selenious acid (5 ng/mL)] […]

[1] = second compound 0.1 µM, first compound 0.00316 µM
[2] = second compound 0.1 µM, first compound 0.01 µM
[3] = second compound 0.1 µM, first compound 0.0316 µM
[4] = second compound 0.1 µM, first compound 0.1 µM
[5] = second compound 0.316 µM, first compound 0.00316 µM
[6] = second compound 0.316 µM, first compound 0.01 µM
[7] = second compound 0.316 µM, first compound 0.0316 µM
[8] = second compound 0.316 µM, first compound 0.1 µM
[9] = second compound 1 µM, first compound 0.00316 µM
[10] = second compound 1 µM, first compound 0.01 µM
[11] = second compound 1 µM, first compound 0.0316 µM
[12] = second compound 1 µM, first compound 0.1 µM
[13] = second compound 3.16 µM, first compound 0.00316 µM
[14] = second compound 3.16 µM, first compound 0.01 µM
[15] = second compound 3.16 µM, first compound 0.0316 µM
[16] = second compound 3.16 µM, first compound 0.1 µM
[17] = second compound 10 µM, first compound 0.00316 µM
[18] = second compound 10 µM, first compound 0.01 µM
[19] = second compound 10 µM, first compound 0.0316 µM
[20] = second compound 10 µM, first compound 0.1 µM
[21] = second compound 0.1 µM, first compound 0.316 µM
[22] = second compound 0.1 µM, first compound 1 µM
[23] = second compound 0.1 µM, first compound 3.16 µM
[24] = second compound 0.1 µM, first compound 10 µM
[25] = second compound 0.316 µM, first compound 0.316 µM
[26] = second compound 0.316 µM, first compound 1 µM
[27] = second compound 0.316 µM, first compound 3.16 µM
[28] = second compound 0.316 µM, first compound 10 µM
[29] = second compound 1 µM, first compound 0.316 µM
[30] = second compound 1 µM, first compound 1 µM
[31] = second compound 1 µM, first compound 3.16 µM
[32] = second compound 1 µM, first compound 10 µM
[33] = second compound 3.16 µM, first compound 0.316 µM
[34] = second compound 3.16 µM, first compound 1 µM
[35] = second compound 3.16 µM, first compound 3.16 µM
[36] = second compound 3.16 µM, first compound 10 µM
[37] = second compound 10 µM, first compound 0.316 µM
[38] = second compound 10 µM, first compound 1 µM
[39] = second compound 10 µM, first compound 3.16 µM
[40] = second compound 10 µM, first compound 10 µM
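Note: spheroids exposed to agents for seven days before viability read.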

Row | Structure (SMILES) | IC50 (second compound 0.1 µM) | IC50 (second compound 0.316 µM) | IC50 (second compound 1 µM) | IC50 (second compound 3.16 µM) | IC50 (second compound 10 µM) | viability, T/C [3] | viability, T/C [4] | viability, T/C [7] | viability, T/C [8] | viability, T/C [11] | viability, T/C [12] | viability, T/C [15] | viability, T/C [16] | viability, T/C [19] | viability, T/C [20] | viability, T/C [21] | viability, T/C [22] | viability, T/C [25] | viability, T/C [26] | viability, T/C [29] | other results
1 | CC[C@@]1(O)C(=O)OCc2c1cc1n(c2=O)Cc2cc3c(CN(C)C)c(O)ccc3nc2-1 + CC(CO)NC(=O)c1cc(-c2ccc(Cl)cc2)nn(-c2cnn(C)c2)c1=O | 27.7 nM | 20.4 nM | 21.9 nM | 14.2 nM | 16.8 nM | 44.6% | 16.7% | 36.5% | 18.1% | 39.4% | 17.6% | 32.4% | 21% | 40.4% | 22.6% | – | – | – | – | – | viability, T/C (second compound 0.1 µM, first compound 0.000316 µM): 106%; viability, T/C (second compound 0.1 µM, first compound 0.001 µM): 103%; viability, T/C [1]: 89.7%; viability, T/C [2]: 80.2%; viability, T/C (second compound 0.316 µM, first compound 0.000316 µM): 102%; viability, T/C (second compound 0.316 µM, first compound 0.001 µM): 106%; viability, T/C [5]: 100%; viability, T/C [6]: 72.6%; viability, T/C (second compound 1 µM, first compound 0.000316 µM): 87.4%; viability, T/C (second compound 1 µM, first compound 0.001 µM): 97.9%; viability, T/C [9]: 89.6%; viability, T/C [10]: 73%; viability, T/C (second compound 3.16 µM, first compound 0.000316 µM): 74%; viability, T/C (second compound 3.16 µM, first compound 0.001 µM): 85.4%; viability, T/C [13]: 76.3%; viability, T/C [14]: 57.2%; viability, T/C (second compound 10 µM, first compound 0.000316 µM): 69.4%; viability, T/C (second compound 10 µM, first compound 0.001 µM): 69.7%; viability, T/C [17]: 61.4%; viability, T/C [18]: 59.6%
2 | COc1cc(C2c3cc4c(cc3C(OC3OC5COC(C)OC5C(O)C3O)C3COC(=O)C23)OCO4)cc(OC)c1O (stereo not given) + CC(CO)NC(=O)c1cc(-c2ccc(Cl)cc2)nn(-c2cnn(C)c2)c1=O | 351 nM | 427 nM | 441 nM | 243 nM | 171 nM | 92.8% | 96% | 101% | 90.3% | 95.6% | 94.9% | 70.6% | 73.9% | 66.7% | 57% | 52.4% | 30.1% | 56.9% | 30.3% | 58.2% | viability, T/C [23]: 26.8%; viability, T/C [24]: 21.3%; viability, T/C [27]: 28.6%; viability, T/C [28]: 23.4%; viability, T/C [30]: 30.2%; viability, T/C [31]: 31.5%; viability, T/C [32]: 21.7%; viability, T/C [33]: 43.4%; viability, T/C [34]: 30.8%; viability, T/C [35]: 28.8%; viability, T/C [36]: 22.7%; viability, T/C [37]: 41.2%; viability, T/C [38]: 36.5%; viability, T/C [39]: 32.7%; viability, T/C [40]: 23.9%
3 | COc1cccc2c1C(=O)c1c(O)c3c(c(O)c1C2=O)CC(O)(C(=O)CO)CC3OC1CC(N)C(O)C(C)O1 (stereo not given) + CC(CO)NC(=O)c1cc(-c2ccc(Cl)cc2)nn(-c2cnn(C)c2)c1=O | < 31.6 nM | < 31.6 nM | < 31.6 nM | < 31.6 nM | < 31.6 nM | 33.5% | 29.2% | 34.6% | 28.6% | 32.9% | 30.9% | 31% | 36.1% | 39.8% | 35.4% | 17.7% | 2.6% | 16.8% | 3.87% | 15.5% | viability, T/C [23]: 0.09%; viability, T/C [24]: 0.19%; viability, T/C [27]: 0.08%; viability, T/C [28]: 0.19%; viability, T/C [30]: 1.51%; viability, T/C [31]: 0.09%; viability, T/C [32]: 0.19%; viability, T/C [33]: 19.6%; viability, T/C [34]: 1.04%; viability, T/C [35]: 0.09%; viability, T/C [36]: 0.68%; viability, T/C [37]: 16.8%; viability, T/C [38]: 0.25%; viability, T/C [39]: 0.24%; viability, T/C [40]: 0.29%
4 | Nc1ncn(C2CC(O)C(CO)O2)c(=O)n1 (stereo not given) + CC(CO)NC(=O)c1cc(-c2ccc(Cl)cc2)nn(-c2cnn(C)c2)c1=O | > 1000 nM | > 1000 nM | > 1000 nM | > 1000 nM | > 1000 nM | 93.4% | 73.4% | 97.5% | 82.9% | 82.8% | 72.2% | 64.1% | 60.4% | 65.8% | 55.9% | 81.7% | 72.3% | 80.2% | 64.8% | 68.3% | viability, T/C [1]: 98.5%; viability, T/C [2]: 97.5%; viability, T/C [5]: 98.4%; viability, T/C [6]: 102%; viability, T/C [9]: 85.9%; viability, T/C [10]: 91.3%; viability, T/C [30]: 61.5%; viability, T/C [13]: 72.4%; viability, T/C [14]: 72.5%; viability, T/C [33]: 64.4%; viability, T/C [34]: 57.6%; viability, T/C [17]: 61.4%; viability, T/C [18]: 67.9%; viability, T/C [37]: 58.3%; viability, T/C [38]: 57.8%
